Measured values taken from PMC12307932, “Convergent evolution of distinct D-ribulose utilisation pathways in attaching and effacing pathogens” (Nature Communications, 2025).
Where two headings read alike, the source gives them in different places.

Biological target: T1, AauA (Escherichia coli, UniProt Q8X6A6)
T1 construct: gene ECs_0374
Test: isothermal titration calorimetry
Format: binding

T1 sequence (Q8X6A6 29-328 limits assumed): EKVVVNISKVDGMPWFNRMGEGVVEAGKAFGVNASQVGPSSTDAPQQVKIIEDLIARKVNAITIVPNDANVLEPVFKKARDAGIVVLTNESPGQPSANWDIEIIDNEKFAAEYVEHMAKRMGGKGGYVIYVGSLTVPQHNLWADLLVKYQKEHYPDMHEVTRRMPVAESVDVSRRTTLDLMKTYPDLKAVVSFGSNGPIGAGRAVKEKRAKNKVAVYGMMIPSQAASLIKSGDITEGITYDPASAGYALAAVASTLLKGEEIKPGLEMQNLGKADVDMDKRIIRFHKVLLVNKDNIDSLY

Compound | Kd (50 mM HEPES, 150 mM NaCl, pH 7.0, 25 °C, 70 µM AauA, single-site model) [µM] | Kd [µM]
OC1OC[C@H](O)[C@H](O)[C@H]1O (some centres unmarked) [ʟ-arabinose] | 598 ± 132 | 
O=C(CO)[C@H](O)[C@H](O)CO [D-ribulose] |  | 1.98 ± 0.3
